Measurements from US8106046B2, “Cyclopentathiophene modulators of the glucocorticoid receptor, AP-1, and/or NF-κB activity and use thereof” (Bristol-Myers Squibb Company, priority 2008, dated 2012).
Where two headings read alike, the source gives them in different places.

Tests used:
[1] = biological target: T1, human glucocorticoid receptor (Homo sapiens, UniProt P04150); assay: Glucocorticoid Receptor Binding Assay (I), fluorescence polarization competitor assay; settings: purified human recombinant full-length GR, Fluormone GS Red
T1 construct: purified human recombinant full-length glucocorticoid receptor (2 nM); purchased Invitrogen Part #2893
T1 sequence (P04150 1-777): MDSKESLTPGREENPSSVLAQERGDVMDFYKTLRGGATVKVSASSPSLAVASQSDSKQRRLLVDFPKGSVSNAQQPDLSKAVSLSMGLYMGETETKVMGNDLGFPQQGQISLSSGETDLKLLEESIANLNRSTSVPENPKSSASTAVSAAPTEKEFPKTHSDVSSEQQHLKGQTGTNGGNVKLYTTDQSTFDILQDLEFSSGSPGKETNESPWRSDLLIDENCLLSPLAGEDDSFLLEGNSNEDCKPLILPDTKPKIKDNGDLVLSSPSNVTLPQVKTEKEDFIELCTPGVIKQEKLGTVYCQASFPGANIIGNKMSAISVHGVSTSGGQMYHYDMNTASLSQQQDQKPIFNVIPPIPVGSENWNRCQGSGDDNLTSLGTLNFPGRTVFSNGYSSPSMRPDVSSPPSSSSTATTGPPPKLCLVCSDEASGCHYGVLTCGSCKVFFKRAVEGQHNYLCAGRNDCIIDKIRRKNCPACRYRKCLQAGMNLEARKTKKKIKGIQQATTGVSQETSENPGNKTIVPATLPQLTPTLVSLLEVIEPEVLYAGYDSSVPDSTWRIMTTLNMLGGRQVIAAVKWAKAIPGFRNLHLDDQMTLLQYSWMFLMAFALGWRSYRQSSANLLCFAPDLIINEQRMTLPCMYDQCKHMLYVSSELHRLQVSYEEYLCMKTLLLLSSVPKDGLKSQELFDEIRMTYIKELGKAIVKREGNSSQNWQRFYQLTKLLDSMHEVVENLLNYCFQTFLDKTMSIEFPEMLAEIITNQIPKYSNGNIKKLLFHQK
Experimental: In order to assess the affinity of test compounds for the human glucocorticoid receptor, a commercially available kit was used (Glucocorticoid Receptor Competitor Assay Kit, Invitrogen Part #2893). Briefly, purified human recombinant full-length glucocorticoid receptor (2 nM) was mixed with fluorescently labeled glucocorticoid (1 nM Fluormone GS Red) in the presence or absence of test compound. After two hour incubation at room temperature in the dark, the fluorescence polarization (FP) of the samples was measured. The FP of a mixture of receptor, fluorescent probe (i.e., Fluormone GS Red) and 5 μM dexamethasone represented background fluorescence or 100% inhibition, whereas, the FP of the mixture without dexamethasone (but in the presence of vehicle) was taken to be 100% binding. […] Test compounds were analyzed in the concentration range from 8.5E-05 μM to 5 μM.

[2] = system: AP-1 induced transcriptional activity; assay: Cellular Transrepressional Assay (AP-1 luciferase reporter in A549 cells, PMA activated); assay type: cell-based; settings: 10 ng/ml PMA, 7 hours; for AP-1 Max % inh (Cellular Transrepression Assay): maximum inhibition; for EC50: read-out: AP-1 EC50, nM (Cellular Transrepression Assay)
Experimental: To measure the ability of test molecules to inhibit AP-1 induced transcriptional activity we utilized an A549 cell which was stably transfected with a plasmid containing 7×AP-1 DNA binding sites (pAP-1-Luc plasmid, Stratagene Co. La Jolla, Calif.) followed by the gene for luciferase. Cells were activated with 10 ng/ml of phorbol myristic acid (PMA) plus or minus test molecules for 7 hours. After 7 hours a luciferase reagent was added to measure luciferase enzymatic activity in the cell. After a 10 minute incubation of luciferase reagent with cells, luminescence was measured in a TopCount luminescence counter. Repression of AP-1 activity was calculated as the percentage decrease in the signal induced by PMA alone. Test molecules were analyzed in the concentration range from 0.1 nM to 40 μM. EC50s were determined by using standard curve fitting methods such as Excel fit (Microsoft Co.). An EC50 is the test molecule concentration at which there is a 50% repression of the maximal inhibition of transcription, i.e., a 50% reduction of AP-1 activity.

Structure (SMILES)	Ki [1] [nM]	EC50 [2] [nM]	EC50 ([2]; Homo sapiens) [nM]	AP-1 Max % inh (Cellular Transrepression Assay) [2] [%]
C[C@@]1(C(=O)Nc2nncs2)Cc2sc(Br)cc2[C@@H]1c1ccccc1 [Example 3, (4R,5R)-2-Bromo-5-methyl-4-phenyl-N-(1,3,4-thiadiazol-2-yl)-5,6-dihydro-4H-cyclopenta[b]thiophene-5-carboxamide]	1.8	–	–	–
CN(C)C(=O)c1ccc(-c2cc3c(s2)C[C@](C)(C(=O)Nc2nncs2)[C@@H]3c2ccccc2)cc1 (racemic) [Example 5]	–	14	–	43.98
CCN(C)C(=O)c1ccc(-c2cc3c(s2)CC(C)(C(=O)Nc2nncs2)C3c2ccccc2)cc1Cl (racemic) [Example 11]	1.9	–	–	–
CN(C)C(=O)c1ccc(-c2cc3c(s2)C[C@](C)(C(=O)Nc2nncs2)[C@@H]3c2ccccc2)cc1Cl [Example 14]	–	63.7	–	42.02
C[C@]1(C(=O)Nc2nncs2)Cc2sc(Br)cc2[C@H]1c1ccccc1 [Example 2, (4S,5S)-2-Bromo-5-methyl-4-phenyl-N-(1,3,4-thiadiazol-2-yl)-5,6-dihydro-4H-cyclopenta[b]thiophene-5-carboxamide]	5.34	–	–	–
CC1(C(=O)Nc2nncs2)Cc2sc(Br)cc2C1c1ccccc1 (racemic) [Example 1, (+/−)-2-Bromo-5-methyl-4-phenyl-N-(1,3,4-thiadiazol-2-yl)-5,6-dihydro-4H-cyclopenta[b]thiophene-5-carboxamide]	5.3	–	–	–
CN(C)C(=O)c1ccc(-c2cc3c(s2)C[C@](C)(C(=O)Nc2nncs2)[C@@H]3c2ccccc2)cc1F (racemic) [Example 9]	–	40.2	–	26.03
CN(C)C(=O)c1ccc(-c2cc3c(s2)C[C@@](C)(C(=O)Nc2nncs2)[C@H]3c2ccccc2)cc1 [Example 19]	–	21.8	–	38.78
CN(C)C(=O)c1ccc(-c2cc3c(s2)C[C@](C)(C(=O)Nc2nncs2)[C@@H]3c2ccccc2)cc1 [Example 12]	–	29.1	–	43.11
CCN(C)C(=O)c1ccc(-c2cc3c(s2)C[C@](C)(C(=O)Nc2nncs2)[C@@H]3c2ccccc2)cc1F (racemic) [Example 10]	–	24.2	–	27.94

Continued, in another order:

Ki [1] [nM]	EC50 [2] [nM]	EC50 ([2]; Homo sapiens) [nM]	Structure (SMILES)	AP-1 Max % inh (Cellular Transrepression Assay) [2] [%]
–	27.3	–	C[C@@]1(C(=O)Nc2nncs2)Cc2sc(-c3ccc(C(=O)N4CCOCC4)cc3)cc2[C@@H]1c1ccccc1 [Example 18]	29.81
–	452	–	Cc1nnc(NC(=O)C2(C)Cc3sc(-c4ccc(C(=O)N5CCOCC5)cc4)cc3C2c2ccccc2)s1 (racemic) [Example 23]	29.00
–	290	–	C[C@]1(C(=O)Nc2nncs2)Cc2sc(-c3ccc(C(=O)N4CCCC4)cc3)cc2[C@H]1c1ccccc1 [Example 16]	56.78
–	–	35	CCN(C)C(=O)c1ccc(-c2cc3c(s2)C[C@](C)(C(=O)Nc2nncs2)[C@@H]3c2ccccc2)cc1 (racemic) [Example 4]	52.82
–	22.5	–	C[C@]1(C(=O)Nc2nncs2)Cc2sc(-c3ccc(C(=O)N4CCOCC4)cc3)cc2[C@H]1c1ccccc1 (racemic) [Example 7]	44.81
–	53.1	–	CN(C)C(=O)c1ccc(-c2cc3c(s2)C[C@](C)(C(=O)Nc2nncs2)[C@@H]3c2ccccc2)cc1Cl (racemic) [Example 6]	29.32
–	23.9	–	C[C@]1(C(=O)Nc2nncs2)Cc2sc(-c3ccc(C(=O)N4CCOCC4)cc3)cc2[C@H]1c1ccccc1 [Example 13]	50.68
–	–	22.8	C[C@]1(C(=O)Nc2nnc(C(=O)NC3CC3)s2)Cc2sc(-c3ccc(C(=O)N4CCOCC4)cc3)cc2[C@H]1c1ccccc1 [Example 21]	60.04
–	42.1	–	C[C@]1(C(=O)Nc2nncs2)Cc2sc(-c3ccc(C(=O)N4CCCC4)cc3)cc2[C@H]1c1ccccc1 (racemic) [Example 8]	42.74
–	18.8	–	CCN(C)C(=O)c1ccc(-c2cc3c(s2)C[C@](C)(C(=O)Nc2nncs2)[C@@H]3c2ccccc2)cc1 [Example 15]	53.20
–	34.5	–	CC(C)NC(=O)c1nnc(NC(=O)C2(C)Cc3sc(-c4ccc(C(=O)N5CCOCC5)cc4)cc3C2c2ccccc2)s1 (racemic) [Example 22]	55.76
–	–	23.1	C[C@]1(C(=O)Nc2nncs2)Cc2sc(-c3ccc(C(=O)N4CCOCC4)cc3)cc2[C@H]1c1cccc(F)c1 (relative stereo) [Example 24, (Cis)-4-(3-fluorophenyl)-5-methyl-2-(4-(morpholine-4-carbonyl)phenyl)-N-(1,3,4-thiadiazol-2-yl)-5,6-dihydro-4H-cyclopenta[b]thiophene-5-carboxamide]	37.80
